From patent US9867796B2, “Combination of a leucine source and an omega-3 unsaturated fatty acid source for use in the treatment of hypercalcaemia” (N.V. Nutricia, priority 2009, dated 2018)

Legend:
[1] = test system: tumour-bearing mice (Murine C-26 adenocarcinoma cells); assay: Plasma calcium levels in C-26 tumour-bearing mice, single or combined ingredients (experiment A); format: in vivo; conditions: diet added to AIN93-M high protein, day 20, compared to TB on control diet (FIG. 1B)
[2] = test system: tumour-bearing mice (Murine C-26 adenocarcinoma cells); assay: Bone mineral density in C-26 tumour-bearing mice on experimental diets (experiment A); format: in vivo; conditions: diet added to AIN93-M high protein, day 20, compared to TB on control diet (FIG. 1A)

CC(C)C[C@H](N)C(=O)O [leucine]
plasma calcium levels [1]: no effect
bone mineral density [2]: did not result in significant changes compared to TB
